Patent publication USRE43135E1, “Method of improving dough and bread quality” (Danisco A/S, priority 2001, dated 2012)

What was measured:
[1] = enzyme expressed in a baculovirus system, Matos et al; cited from earlier work
[2] = Enzyme-catalysed degumming of vegetable oil; format: biochemical; conditions: rapeseed oil degumming; preliminary results
Description: Vegetable oil, in particular rapeseed oil, was treated with LAH isolated from cowpea to effect degumming of the oil. The process used was essentially as per the enzyme-catalysed degumming process of vegetable oil generally taught in Buchold, H. (Fat Sci. Technol. 95 Jahrgang nr. 8, 1993, pp300-305), excepting that LAH was used.

[3] = Assay for enzyme activity with pNP-Caprate; format: biochemical; conditions: desalted/concentrated sample of purification step 5 (used for baking trials)
Description: Preparation of substrate for enzymatic assay: The substrate, pNP-Caprate (C10), was dissolved in ethanol and diluted in 100 mM Na-Phosphate-buffer (pH 6.3) to a final concentration of 0.1 mg,/ml substrate and 30% ethanol respectively, and kept at room temperature.
Assay method: The enzyme assay mixture contained 30 μl sample/blank and 250 μl substrate. The mixture was incubated at 35° C. for 30 minutes (420 nm) whilst simultaneously running an ELISA-reader (420 nm) kinetic program. The Vmax value was used for calculation of enzyme activity (U/ml). Vmax was converted to μmol from a standard curve for solutions of pNP measured under the same conditions as the sample. The enzyme activity is defined as the amount of enzyme which produce 1 μmol of pNP per min. at 35° C.

[4] = Minibread dough, free fatty acid analysis; format: biochemical, wheat
Description: (§1) 10 g of fully proofed dough was immediately frozen and freeze dried. The freeze-dried dough was milled in a coffee mill and passed through an 800 micron screen. 1.5 g freeze-dried dough was scaled in a 15 ml centrifuge tube with screw top lid. 7.5 ml water saturated butanol (WSB) was added. The centrifuge tube was placed in a boiling water bath for 10 minutes. The tubes were placed in a Rotamix and rotated at 45 rpm for 20 minutes at ambient temperature and then placed in a boiling water bath again for a further 10 minutes prior to being Rotated on the Rotamix for a further 30 minutes at ambient temperature. The tubes were centrifuged at 3500 g for 5 minutes. 5 ml supernatant was transferred into a vial and the WSB was evaporated to dryness under a steam of nitrogen.
The free fatty acids in the extract were analysed as Cu-salts in isooctane measured at 715 nm and quantified according to a calibration curve based on oleic acid (Kwon D. Y. and Rhee J. S. (1986), A simple and rapid Colourimetric Method for […]

[5] = Model dough, GLC analysis of non-polar lipids (cowpea LAH); format: biochemical, wheat; conditions: Example 1, FIG. 7, compared with activity on polar lipids and free fatty acid formation
Description: (§2) 10 g of flour and 0.020 g sodium chloride were mixed in a 10 g Farinograph mixing bowl for 1 minute either with or without enzymes. Subsequently water (500 Brabender units) was added and mixed for 5 minutes at 30° C. After mixing the dough was placed at 32° C. for 1 hour, and then frozen and freeze dried prior to further analysis.
(§3) Perkin Elmer 8420 Capillary Gas Chromatography equipped with WCOT fused silica column 12.5 m×0.25 mm ID×0.1 μm 5% phenyl-methyl-silicone (CP Sil 8 CB from Crompack). • Carrier: Helium. • Injection: 1.5 μl with split. • Detector: FID. 385° C.
(§4) Sample preparation: 50 mg wheat lipid was dissolved in 12 ml heptane: pyridine 2:1 containing an internal standard heptadecane, 2 mg/ml. 500 μl of the sample was transferred to a crimp vial. 100 μl MSTFA (N-Methyl-N-trimethylsilyltrifluoracetamid) was added and the reaction incubated for 15 minutes at 90° C. Calculation: Response factors for mono-di-triglycerides and free fatty acid were determined from reference mixtures of these components. Based on these response factors the mono-di-triglycerides and free fatty acids in wheat lipids were calculated.
The non-polar lipids were analysed by GLC.

[6] = Model dough, free fatty acid in dough (cowpea LAH); format: biochemical, wheat
Description: as §2, §1
The free fatty acids in the extract were analysed as Cu-salts in isooctane measured at 715 nm and quantified according to a calibration curve based on oleic acid (Kwon D. Y. and Rhee J. S. (1986), A simple and rapid Colourimetric Method for
In the first series of dough experiments purified cowpea LAH was tested in 10 g dough in different concentrations in order to test the activity of the enzyme in dough and in order to find a suitable dosage for baking experiments. The activity of the enzyme was measured by analysing the level of free fatty acid in dough.

[7] = Minibread dough, GLC analysis of non-polar dough lipids; format: biochemical, wheat
Description: as §1, §3, §4

[8] = Model dough, HPLC analysis of polar lipids in dough (cowpea LAH); format: biochemical, wheat
Description: as §2, §1
(§5) Determination of Free Fatty Acids for Lipase Assay, JAOCS 63:89). Determination of Glycolipids and Phospholipids by HPLC.
(§6) The calibration curve for PC was used to calculate the amounts of the glycolipids and phospholipids.
Lipids extracted from the dough were further analysed by HPLC in order to study the effect on polar lipids in the dough.

[9] = Minibread dough, HPLC analysis of galactolipids; format: biochemical, wheat
Description: as §1, §5, §6

[10] = Withers-Martinez et al; cited from earlier work
[11] = Cowpea LAH 0.0048 Units/kg flour
[12] = Cowpea LAH 0.024 Units/kg flour
[13] = Cowpea LAH % 0.1195, minibread dough
[14] = Cowpea LAH % 0.239, minibread dough
[15] = Cowpea LAH % 0.478, minibread dough
[16] = Cowpea LAH % 0.956, minibread dough
[17] = Test no. 2, Cowpea LAH 0.05 % in dough, fully proofed minibread dough
[18] = Test no. 3, Cowpea LAH 0.15 % in dough, fully proofed minibread dough
[19] = Test no. 3, Cowpea LAH 0.357 Units/kg flour, no DGDG added, minibread dough
[20] = Test no. 4, Cowpea LAH 0.357 Units/kg flour + DGDG 55% pure 0.2 %, minibread dough

43 KDa protein from drought-stressed cowpea: galactolipid acyl hydrolase of Matos et al, expressed in a baculovirus system; amino acid sequence SEQ ID No. 1
activity on triacylglycerol (triglyceride) [1]: no activity
galactolipid acyl hydrolase activity [1]: preferentially galactolipid acyl hydrolase activity
phospholipid activity [1]: some phospholipid activity

Cowpea LAH: lipolytic acyl hydrolase (E.C. 3.1.1.26) isolated from cowpea (Vigna unguiculata) leaves; hydrolyses glycolipid and phospholipid, not triglyceride
amounts of polar lipids in the oil [2]: reduce the amounts of polar lipids
triglyceride levels of the oil [2]: not significantly affecting
Vmax [3]: 5.6 mOD/min.
enzyme activity [3]: 0.010 U/ml
Free fatty acid in dough ([4]; Cowpea LAH 0.1195 Units/kg): 2.72 ‰
Free fatty acid in dough ([4]; Cowpea LAH 0.239 Units/kg): 2.81 ‰
Free fatty acid in dough ([4]; Cowpea LAH 0.478 Units/kg): 3.07 ‰
Free fatty acid in dough ([4]; Cowpea LAH 0.956 Units/kg): 3.28 ‰
Free fatty acid ([4]; Test no 3, Cowpea LAH 0.357 Units/kg flour, no DGDG): 3.07 ‰
Free fatty acid ([4]; Test no 4, Cowpea LAH 0.357 Units/kg flour + DGDG 55% pure 0.2 %): 3.00 ‰
Free fatty acid ([4]; Test no 10, Cowpea LAH 1.07 Units/kg flour, no DGDG): 3.32 ‰
Free fatty acid ([4]; Test no 11, Cowpea LAH 1.07 Units/kg flour + DGDG 55% pure 0.1 %): 3.42 ‰
Free fatty acid ([4]; Test no 12, Cowpea LAH 1.07 Units/kg flour + DGDG 55% pure 0.2 %): 3.64 ‰
Free fatty acid ([4]; Test no 13, Cowpea LAH 1.07 Units/kg flour + DGDG 55% pure 0.4 %): 3.92 ‰
Free fatty acid ([4]; Test no 15, Cowpea LAH 1.07 Units/kg flour + Soy oil 2 %): 3.35 ‰
Free fatty acid ([4]; Test no 16, Cowpea LAH 2.14 Units/kg flour + Soy oil 2 %): 3.75 ‰
Fatty acid in dough ([4]; Test no. 2, Cowpea LAH 0.05 % in dough): 2.75 ‰
Fatty acid in dough ([4]; Test no. 3, Cowpea LAH 0.15 % in dough): 2.96 ‰
activity on triglyceride (GLC analysis) [5]: no activity
Fatty acid in dough [6, 11]: 1.66 ‰
Fatty acid in dough [6, 12]: 1.78 ‰
Fatty acid in dough ([6]; Cowpea LAH 0.12 Units/kg flour): 2.13 ‰
Fatty acid in dough ([6]; Cowpea LAH 0.6 Units/kg flour): 2.55 ‰
Fatty acid in dough ([6]; Cowpea LAH 3 Units/kg flour): 3.44 ‰
Diglyceride [7, 13]: 0.96 ‰
Monoglyceride [7, 13]: 0.40 ‰
Triglyceride [7, 13]: 5.04 ‰
Diglyceride [7, 14]: 1.23 ‰
Monoglyceride [7, 14]: 0.41 ‰
Triglyceride [7, 14]: 5.21 ‰
Diglyceride [7, 15]: 0.90 ‰
Monoglyceride [7, 15]: 0.43 ‰
Triglyceride [7, 15]: 5.09 ‰
Diglyceride [7, 16]: 1.01 ‰
Monoglyceride [7, 16]: 0.41 ‰
Triglyceride [7, 16]: 5.23 ‰
Diglyceride [7, 17]: 0.95 ‰
Monoglyceride [7, 17]: 0.43 ‰
Triglyceride [7, 17]: 4.98 ‰
Diglyceride [7, 18]: 0.96 ‰
Monoglyceride [7, 18]: 0.43 ‰
Triglyceride [7, 18]: 5.11 ‰
Triglyceride [7, 19]: not detected
Triglyceride [7, 20]: 5.82 ‰
DGDG [8, 11]: 2.22 ‰
DGMG [8, 11]: 0.20 ‰
LPC [8, 11]: 1.50 ‰
PC [8, 11]: 0.52 ‰
DGDG [8, 12]: 2.12 ‰
DGMG [8, 12]: 0.23 ‰
LPC [8, 12]: 1.51 ‰
PC [8, 12]: 0.48 ‰
DGDG ([8]; Cowpea LAH 0.12 Units/kg flour): 1.84 ‰
DGMG ([8]; Cowpea LAH 0.12 Units/kg flour): 0.26 ‰
LPC ([8]; Cowpea LAH 0.12 Units/kg flour): 1.37 ‰
PC ([8]; Cowpea LAH 0.12 Units/kg flour): 0.35 ‰
DGDG ([8]; Cowpea LAH 0.6 Units/kg flour): 1.08 ‰
DGMG ([8]; Cowpea LAH 0.6 Units/kg flour): 0.30 ‰
LPC ([8]; Cowpea LAH 0.6 Units/kg flour): 1.30 ‰
PC ([8]; Cowpea LAH 0.6 Units/kg flour): 0.29 ‰
DGDG ([8]; Cowpea LAH 3.0 Units/kg flour): 0.30 ‰
DGMG ([8]; Cowpea LAH 3.0 Units/kg flour): 0.11 ‰
LPC ([8]; Cowpea LAH 3.0 Units/kg flour): 1.19 ‰
PC ([8]; Cowpea LAH 3.0 Units/kg flour): 0.00 ‰
DGDG [9, 13]: 2.08 ‰
DGMG [9, 13]: 0.23 ‰
DGDG [9, 14]: 2.01 ‰
DGMG [9, 14]: 0.20 ‰
DGDG [9, 15]: 1.89 ‰
DGMG [9, 15]: 0.24 ‰
DGDG [9, 16]: 1.60 ‰
DGMG [9, 16]: 0.20 ‰
DGDG [9, 17]: 2.03 ‰
DGMG [9, 17]: 0.27 ‰
DGDG [9, 18]: 1.92 ‰
DGMG [9, 18]: 0.28 ‰
DGDG [9, 19]: 1.93 ‰
DGMG [9, 19]: 0.23 ‰
DGDG [9, 20]: 2.4 ‰
DGMG [9, 20]: 0.25 ‰

B1: HPL: human pancreas lipase (protein, UniProt P16233 17-465, looked up)
Pancreatic triacylglycerol …: KEVCYERLGCFSDDSPWSGITERPLHILPWSPKDVNTRFLLYTNENPNNFQEVAADSSSISGSNFKTNRKTRFIIHGFIDKGEENWLANVCKNLFKVESVNCICVDWKGGSRTGYTQASQNIRIVGAEVAYFVEFLQSAFGYSPSNVHVIGHSLGAHAAGEAGRRTNGTIGRITGLDPAEPCFQGTPELVRLDPSDAKFVDVIHTDGAPIVPNLGFGMSQVVGHLDFFPNGGVEMPGCKKNILSQIVDIDGIWEGTRDFAACNHLRSYKYYTDSIVNPDGFAGFPCASYNVFTANKCFPCPSGGCPQMGHYADRYPGKTNDVGQKFYLDTGDASNFARWRYKVSVTLSGKKVTGHILVSLFGNKGNSKQYEIFKGTLKPDSTHSNEFDSDVDVGDLQMVKFIWYNNVINPTLPRVGASKIIVETNVGKQFNFCSPETVREEVLLTLTPC
activity on triglyceride [10]: only activity on triglyceride

B2: GPLRP2: guinea pig pancreatic lipase-related protein 2 (protein, UniProt P81139 1-434, looked up)
Pancreatic lipase-related …: AEVCYSHLGCFSDEKPWAGTSQRPIKSLPSDPKKINTRFLLYTNENQNSYQLITATDIATIKASNFNLNRKTRFIIHGFTDSGENSWLSDMCKNMFQVEKVNCICVDWKGGSKAQYSQASQNIRVVGAEVAYLVQVLSTSLNYAPENVHIIGHSLGAHTAGEAGKRLNGLVGRITGLDPAEPYFQDTPEEVRLDPSDAKFVDVIHTDISPILPSLGFGMSQKVGHMDFFPNGGKDMPGCKTGISCNHHRSIEYYHSSILNPEGFLGYPCASYDEFQESGCFPCPAKGCPKMGHFADQYPGKTNAVEQTFFLNTGASDNFTRWRYKVTVTLSGEKDPSGNINVALLGKNGNSAQYQVFKGTLKPDASYTNSIDVELNVGTIQKVTFLWKRSGISVSKPKMGASRITVQSGKDGTKYNFCSSDIVQENVEQTLSPC
activity on galactolipids and phospholipids [10]: has activity on galactolipids and phospholipids
activity on triglyceride [10]: reduced activity
